Experimental data taken from PMC4584933, “Establishing the pig as a large animal model for vaccine development against human cancer” (Frontiers in Genetics, 2015).

Key:
[1] = system: SLA-2*05:02; test: Peptide-MHC class I complex stability, scintillation proximity assay (SPA); design: species or system pig; details: biotinylated recombinant SLA heavy chain, 125I-β2m, excess unlabeled β2m, read every 40 min, number only if t1/2 ≥ 0.5 h, '-' = not stably binding
Procedure: (§1) The stability of the selected 198 peptides in complex with relevant SLA class I molecules and β2m was determined using a scintillation proximity assay (SPA), as previously described (Harndahl et al., [2011]). Briefly, biotinylated recombinant MHC class I heavy chains were attached to a streptavidin-coated scintillation microplate together with iodinated (^125I) β2m and candidate peptide resulting in a scintillation signal, which was consecutively measured every 40 min by a scintillation plate counter. The duration of this signal is directly correlated to the stability of the peptide-MHC class I-β2m complex under dissociating conditions and in the presence of excess unlabeled β2m (Harndahl et al., [2011]). Peptides with a half-life ≥ 0.5 h were selected as stable binders.

[2] = system: PBMCs; test: In vitro peptide stimulation of porcine PBMCs, IFN-γ release assay (ELISA); type: cell-based, pig; design: key to T cell response: “x” indicates that a response was found to this given peptide at least once; details: PBMCs of immunized pigs, 2 × 10^5/well, 5 μg/ml peptide, 67.5–70.0 h, IFN-γ ELISA; response = 2-fold increase vs day -2 and at least 25 pg/ml IFN-γ, found at least once; SLA restriction not included
[3] = system: SLA-2*04:01; test: Peptide-MHC class I complex stability, scintillation proximity assay (SPA); design: species or system pig; details: biotinylated recombinant SLA heavy chain, 125I-β2m, excess unlabeled β2m, read every 40 min, number only if t1/2 ≥ 0.5 h, '-' = not stably binding
Procedure: as §1

[4] = system: SLA-3*04:01; test: as above; design: species or system pig; details: biotinylated recombinant SLA heavy chain, 125I-β2m, excess unlabeled β2m, read every 40 min, number only if t1/2 ≥ 0.5 h, '-' = not stably binding
Procedure: as §1

| Sequence | Binder (t1/2 ≥ 0.5 h): half-life of peptide-SLA-2*05:02 complex [1] | Binder (t1/2 ≥ 0.5 h): half-life of peptide-SLA-3*04:01 complex [4] | other results |
| --- | --- | --- | --- |
| MAAIRKKLVI [RhoC40, porcine RhoC-derived 9-11mer peptide] | 0.5 h | – | – |
| WKIFEEYHI [IDO131, porcine IDO-derived 9-11mer peptide] | 2.3 h | – | T cell response [2]: x |
| ELAKMKQEP [RhoC15, porcine RhoC-derived 9-11mer peptide] | - (t1/2 (hours) is listed for each of the stably binding peptides (t1/2 ≥ 0.5 h)) | – | – |
| HKALEVFHQI [IDO36, porcine IDO-derived 9-11mer peptide] | - (t1/2 (hours) is listed for each of the stably binding peptides (t1/2 ≥ 0.5 h)) | – | – |
| LSYPDTDVI [RhoC35, porcine RhoC-derived 9-11mer peptide] | - (t1/2 (hours) is listed for each of the stably binding peptides (t1/2 ≥ 0.5 h)) | – | Binder (t1/2 ≥ 0.5 h): half-life of peptide-SLA-2*04:01 complex [3]: - (t1/2 (hours) is listed for each of the stably binding peptides (t1/2 ≥ 0.5 h)) |
| KNMDILFSF [IDO58, porcine IDO-derived 9-11mer peptide] | – | - (t1/2 (hours) is listed for each of the stably binding peptides (t1/2 ≥ 0.5 h)) | T cell response [2]: x; Binder (t1/2 ≥ 0.5 h): half-life of peptide-SLA-2*04:01 complex [3]: 8.0 h |
| ELPHPYDAWI [IDO18, porcine IDO-derived 9-11mer peptide] | 5.8 h | – | – |
| YVPTVFENYI [RhoC61, porcine RhoC-derived 9-11mer peptide] | 0.7 h | – | – |
| IAIAKNLPELI [IDO44, porcine IDO-derived 9-11mer peptide] | - (t1/2 (hours) is listed for each of the stably binding peptides (t1/2 ≥ 0.5 h)) | – | – |
| ANRISAFGY [RhoC2, porcine RhoC-derived 9-11mer peptide] | – | - (t1/2 (hours) is listed for each of the stably binding peptides (t1/2 ≥ 0.5 h)) | T cell response [2]: x; Binder (t1/2 ≥ 0.5 h): half-life of peptide-SLA-2*04:01 complex [3]: 2.6 h |
| ANWKKKDPS [IDO6, porcine IDO-derived 9-11mer peptide] | – | - (t1/2 (hours) is listed for each of the stably binding peptides (t1/2 ≥ 0.5 h)) | – |
| MVSLRNYHLQI [IDO84, porcine IDO-derived 9-11mer peptide] | - (t1/2 (hours) is listed for each of the stably binding peptides (t1/2 ≥ 0.5 h)) | – | – |
| LSYPDTDVILM [RhoC37, porcine RhoC-derived 9-11mer peptide] | 1.4 h | – | Binder (t1/2 ≥ 0.5 h): half-life of peptide-SLA-2*04:01 complex [3]: - (t1/2 (hours) is listed for each of the stably binding peptides (t1/2 ≥ 0.5 h)) |
| RNIAIPYCKLS [IDO109, porcine IDO-derived 9-11mer peptide] | – | - (t1/2 (hours) is listed for each of the stably binding peptides (t1/2 ≥ 0.5 h)) | – |
| EELPHPYDAWI [IDO14, porcine IDO-derived 9-11mer peptide] | - (t1/2 (hours) is listed for each of the stably binding peptides (t1/2 ≥ 0.5 h)) | – | – |
| KNKRRRGCPI [RhoC31, porcine RhoC-derived 9-11mer peptide] | – | 42 min | T cell response [2]: x |
| KHFCPNVPI [RhoC28, porcine RhoC-derived 9-11mer peptide] | – | - (t1/2 (hours) is listed for each of the stably binding peptides (t1/2 ≥ 0.5 h)) | – |
| RNYHLQIVT [IDO110, porcine IDO-derived 9-11mer peptide] | – | - (t1/2 (hours) is listed for each of the stably binding peptides (t1/2 ≥ 0.5 h)) | Binder (t1/2 ≥ 0.5 h): half-life of peptide-SLA-2*04:01 complex [3]: - (t1/2 (hours) is listed for each of the stably binding peptides (t1/2 ≥ 0.5 h)) |
| KLFFNVLRI [IDO52, porcine IDO-derived 9-11mer peptide] | – | - (t1/2 (hours) is listed for each of the stably binding peptides (t1/2 ≥ 0.5 h)) | – |
| VLSKGDALL [IDO127, porcine IDO-derived 9-11mer peptide] | - (t1/2 (hours) is listed for each of the stably binding peptides (t1/2 ≥ 0.5 h)) | – | – |
| RNIAIPYCKL [IDO108, porcine IDO-derived 9-11mer peptide] | – | - (t1/2 (hours) is listed for each of the stably binding peptides (t1/2 ≥ 0.5 h)) | – |
| ANRISAFGYLE [RhoC4, porcine RhoC-derived 9-11mer peptide] | – | - (t1/2 (hours) is listed for each of the stably binding peptides (t1/2 ≥ 0.5 h)) | – |
| KDPSGPMTY [IDO47, porcine IDO-derived 9-11mer peptide] | – | - (t1/2 (hours) is listed for each of the stably binding peptides (t1/2 ≥ 0.5 h)) | – |
| HLQIVTKYI [IDO38, porcine IDO-derived 9-11mer peptide] | 0.5 h | – | – |
